Series [1] has as its target T1, hAChE (Homo sapiens, UniProt P22303). Description: biochemical. The conditions noted are these: for IC50: mean ± SEM of three independent measurements, each in triplicate. Format: biochemical. As for the experimental part: (§1) The hAChE and hBuChE activities were determined using a modified method of Ellman with acetylthiocholine iodide (ATChI) and butyrylthiocholine iodide (BuTChI) as substrates, respectively.

Series [2] concerns the target T2, hBuChE (Homo sapiens, UniProt P06276). Description: biochemical. The series is classed as biochemical. As for the experimental part:
as §1

For series [3], the system named is human cell lines (Jurkat, MOLT-4, A549, HT-29, PANC-1, A2780, HeLa, MCF-7, SAOS-2 and MRC-5). Put plainly: WST-1 antiproliferative screen, whole panel of tested human cell lines. The series is classed as cell-based. The conditions noted are these: 10 µM single-dose, 48 h of exposure. As for the experimental part: The antiproliferative effect of 1a–1m at 10 µM single-dose treatment regimen was assessed using WST-1 tetrazolium salt assay. […] Kinetic analysis of 1j and 1m was used for the determination of their inhibition pattern against both hAChE and hBuChE. […] The Km and Vm values were calculated from the Lineweaver-Burk plot. […]
The WST-1 (Roche, Mannheim, Germany) reagent was used to determine the cytostatic effect of the test compounds. WST-1 is designed for the spectrophotometric quantification of cell proliferation, growth, viability and chemosensitivity in cell populations using a 96-well-plate format (Sigma, St. Louis, MO, USA). […] Absorbance was measured after 3 h incubation with WST-1 at 440 nm. […] The viability was quantified as described previously according to the following formula: (%) viability = (Asample − Ablank)/(Acontrol − Ablank) × 100, where A is the absorbance of the employed WST-1 formazan measured at 440 nm. […]

The target of a further series is GSK-3β (Homo sapiens, UniProt P49841). Put plainly: GSK-3β assay (Kinase-Glo Kit). The series is classed as biochemical. The following applies: for inhibition at 10 µM: tested at 10 µM compound concentration, read-out: GSK-3β (% inhib.). The method, then:
The GSK-3β assay was performed by using Kinase-Glo Kit obtained from Promega (Promega Biotech Iberica, SL, Madrid, Spain) as described previously.

The next series is described as follows: in vitro. The conditions noted are these: for PAMPA-BBB prediction of penetration in the CNS: class from Pe; for PAMPA-BBB Permeability (Pe) / Papp: PBS:EtOH (70:30) as solvent, mean ± SD of 2 independent experiments; for Papp: pig, PAMPA, PAMPA-BBB Permeability (Pe). As for the experimental part: The PAMPA assay was performed as previously described.
Series [4] concerns Jurkat (acute T cell leukemia). Put plainly: WST-1 cytotoxicity assay, Jurkat. The conditions noted are these: Homo sapiens, c = 10 μM, 48 h, percent of proliferation of untreated control cells. The series is classed as cell-based. The source says:
(§2) Selected human tumor and non-tumor cell lines {Jurkat (acute T cell leukemia), MOLT-4 (acute lymphoblastic leukemia), A549 (lung carcinoma), HT-29 (colorectal adenocarcinoma), PANC-1 (pancreas epithelioid carcinoma), A2780 (ovarian carcinoma), HeLa (cervix adenocarcinoma), MCF-7 (breast adenocarcinoma), SAOS-2 (osteosarcoma) and MRC-5 (normal lung fibroblasts)} were purchased from either ATCC (Manassas, VA, USA) or Sigma-Aldrich (St. Louis, MO, USA) and cultured according to the provider’s culture method guidelines. […] Cells in the maximum range of either 10 passages for primary cell line (MRC-5), or in the maximum range of 20 passages for cancer cell lines (Jurkat, MOLT-4, A549, HT-29, PANC-1, A2780, HeLa, MCF-7 and SAOS-2) and in an exponential growth phase were used for this study.
(§3) The WST-1 (Roche, Mannheim, Germany) reagent was used to determine the cytostatic effect of the test compounds. WST-1 is designed for the spectrophotometric quantification of cell proliferation, growth, viability and chemosensitivity in cell populations using a 96-well-plate format (Sigma, St. Louis, MO, USA). The principle of WST-1 is based on photometric detection of the reduction of tetrazolium salt to a colored formazan product. The cells were seeded at a previously established optimal density (30,000 Jurkat, 25,000 MOLT-4, 500 A549, 1500 HT-29, 2000 PANC-1, 5000 A2780, 500 HeLa, 1500 MCF-7, 2000 SAOS-2 and 2000 MRC-5 cells/well) in 100 µL of culture medium, and adherent cells were allowed to reattach overnight. Thereafter, the cells were treated with 100 µL of either corresponding alkaloids or doxorubicin stock solutions to obtain the desired concentrations and incubated in 5% CO2 at 37 °C. WST-1 reagent diluted 4-fold with PBS (50 µL) was added 48 h after treatment. Absorbance was measured after 3 h incubation with WST-1 at 440 nm. The measurements were performed in a Tecan Infinite M200 spectrometer (Tecan Group, Männedorf, Switzerland). All experiments were performed at least three times with triplicate measurements at each drug concentration per experiment. The viability was quantified as described previously according to the following formula: (%) viability = (Asample − Ablank)/(Acontrol − Ablank) × 100, where A is the absorbance of the employed WST-1 formazan measured at 440 nm. The viability of the treated cells was normalized to the viability of cells treated with 0.1% DMSO (Sigma-Aldrich) as a vehicle control.

The subject of series [5] is MOLT-4 (acute lymphoblastic leukemia). Put plainly: WST-1 cytotoxicity assay, MOLT-4. Format: cell-based. The conditions noted are these: Homo sapiens, c = 10 μM, 48 h, percent of proliferation of untreated control cells, read-out: Cell proliferation, MOLT-4.
Excerpt: as §2, §3

The next series concerns A549 (lung carcinoma). Description: WST-1 cytotoxicity assay, A549. The following applies: Homo sapiens, c = 10 μM, 48 h, percent of proliferation of untreated control cells, read-out: Cell proliferation, A549. Format: cell-based.
Excerpt: as §2, §3

Series [6] deals with HT-29 (colorectal adenocarcinoma). Description: WST-1 cytotoxicity assay, HT-29. Format: cell-based. The following applies: Homo sapiens, c = 10 μM, 48 h, percent of proliferation of untreated control cells, read-out: Cell proliferation, HT-29.
Excerpt: as §2, §3

Series [7] concerns PANC-1 (pancreas epithelioid carcinoma). Put plainly: WST-1 cytotoxicity assay, PANC-1. Format: cell-based. The following applies: Homo sapiens, c = 10 μM, 48 h, percent of proliferation of untreated control cells, read-out: Cell proliferation, PANC-1.
Excerpt: as §2, §3

Series [8] relates to A2780 (ovarian carcinoma). Put plainly: WST-1 cytotoxicity assay, A2780. The series is classed as cell-based. The conditions noted are these: Homo sapiens, c = 10 μM, 48 h, percent of proliferation of untreated control cells, read-out: Cell proliferation, A2780.
Excerpt: as §2, §3

Series [9] concerns HeLa (cervix adenocarcinoma). Description: WST-1 cytotoxicity assay, HeLa. Format: cell-based. The following applies: Homo sapiens, c = 10 μM, 48 h, percent of proliferation of untreated control cells, read-out: Cell proliferation, HeLa.
Excerpt: as §2, §3

Series [10] relates to MCF-7 (breast adenocarcinoma). Put plainly: WST-1 cytotoxicity assay, MCF-7. Format: cell-based. The conditions noted are these: Homo sapiens, MCF7; c = 10 μM, 48 h, percent of proliferation of untreated control cells; read-out: Cell proliferation, MCF-7.
Excerpt: as §2, §3

Another series has as its system SAOS-2 (osteosarcoma). Put plainly: WST-1 cytotoxicity assay, SAOS-2. Format: cell-based. The following applies: Homo sapiens, c = 10 μM, 48 h, percent of proliferation of untreated control cells, read-out: Cell proliferation, SAOS-2.
Excerpt: as §2, §3

In series [11] the test system is MRC-5 (normal lung fibroblasts). Description: WST-1 cytotoxicity assay, MRC-5. Format: cell-based. The conditions noted are these: Homo sapiens, MRC5; c = 10 μM, 48 h, percent of proliferation of untreated control cells; read-out: Cell proliferation, MRC-5.
Excerpt: as §2, §3

Series [12] has as its target T1, hAChE. Put plainly: AChE inhibition mechanism (Lineweaver-Burk kinetic analysis). The following applies: Lineweaver-Burk plot; Km and Vm decreased. The series is classed as biochemical. As for the experimental part:
(§4) The antiproliferative effect of 1a–1m at 10 µM single-dose treatment regimen was assessed using WST-1 tetrazolium salt assay. […] Kinetic analysis of 1j and 1m was used for the determination of their inhibition pattern against both hAChE and hBuChE. […] The Km and Vm values were calculated from the Lineweaver-Burk plot.

For series [13], the target named is T2, hBuChE. Description: BuChE inhibition mechanism (Lineweaver-Burk kinetic analysis). Format: biochemical. The following applies: for mechanism of inhibition of hBuChE: Lineweaver-Burk plot, Km and Vm decreased. As for the experimental part:
as §4

The mark [14] stands for this setting: mean ± SEM of three independent measurements, each in triplicate, read-out: hBuChE IC50.

Like-named read-outs stand apart in the source and are kept apart here.

T2 sequence (P06276 29-602): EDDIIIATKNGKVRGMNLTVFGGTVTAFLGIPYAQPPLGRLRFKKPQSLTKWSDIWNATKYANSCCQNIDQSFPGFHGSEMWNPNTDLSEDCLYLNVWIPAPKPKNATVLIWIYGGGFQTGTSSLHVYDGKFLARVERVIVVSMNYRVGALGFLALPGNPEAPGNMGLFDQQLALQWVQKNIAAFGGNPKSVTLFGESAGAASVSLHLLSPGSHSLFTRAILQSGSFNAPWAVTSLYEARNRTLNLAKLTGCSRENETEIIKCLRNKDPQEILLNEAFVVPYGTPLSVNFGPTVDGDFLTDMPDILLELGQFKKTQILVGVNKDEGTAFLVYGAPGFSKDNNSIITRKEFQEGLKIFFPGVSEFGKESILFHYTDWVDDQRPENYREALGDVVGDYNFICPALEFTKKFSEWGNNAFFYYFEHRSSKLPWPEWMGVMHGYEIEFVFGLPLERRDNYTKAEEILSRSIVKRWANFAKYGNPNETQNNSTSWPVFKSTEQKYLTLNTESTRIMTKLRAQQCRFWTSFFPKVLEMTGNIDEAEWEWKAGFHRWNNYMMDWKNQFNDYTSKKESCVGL
Sequence of GSK-3β (P49841 whole entry): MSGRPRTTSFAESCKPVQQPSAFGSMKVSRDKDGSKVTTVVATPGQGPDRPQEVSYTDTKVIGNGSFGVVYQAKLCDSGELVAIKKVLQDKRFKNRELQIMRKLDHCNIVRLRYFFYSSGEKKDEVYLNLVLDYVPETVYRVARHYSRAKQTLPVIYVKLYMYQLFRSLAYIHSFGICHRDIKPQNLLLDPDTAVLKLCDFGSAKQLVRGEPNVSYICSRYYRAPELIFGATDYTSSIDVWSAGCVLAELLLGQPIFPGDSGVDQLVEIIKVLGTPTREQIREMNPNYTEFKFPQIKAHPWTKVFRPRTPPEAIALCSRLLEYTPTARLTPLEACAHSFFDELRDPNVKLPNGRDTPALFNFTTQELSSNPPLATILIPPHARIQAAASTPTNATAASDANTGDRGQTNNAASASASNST
T1 sequence (P22303 32-614): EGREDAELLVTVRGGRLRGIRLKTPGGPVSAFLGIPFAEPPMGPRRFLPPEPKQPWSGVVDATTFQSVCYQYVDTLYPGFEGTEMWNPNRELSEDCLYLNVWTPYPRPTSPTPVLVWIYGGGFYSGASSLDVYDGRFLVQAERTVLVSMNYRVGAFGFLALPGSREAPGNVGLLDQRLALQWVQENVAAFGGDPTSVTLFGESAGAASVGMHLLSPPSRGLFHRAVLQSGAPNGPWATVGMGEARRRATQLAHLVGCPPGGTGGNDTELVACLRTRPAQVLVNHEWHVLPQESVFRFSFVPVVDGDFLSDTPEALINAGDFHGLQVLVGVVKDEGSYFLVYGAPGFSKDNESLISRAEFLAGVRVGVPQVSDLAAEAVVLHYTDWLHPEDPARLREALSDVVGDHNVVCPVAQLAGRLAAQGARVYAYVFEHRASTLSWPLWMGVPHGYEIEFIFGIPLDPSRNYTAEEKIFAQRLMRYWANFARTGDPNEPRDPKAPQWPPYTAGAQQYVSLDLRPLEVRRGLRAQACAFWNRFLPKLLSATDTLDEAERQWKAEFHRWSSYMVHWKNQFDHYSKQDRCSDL

Take `COC1C=CC23c4cc5c(cc4CN(CC2O)C3C1)OCO5` (centres unmarked) [Compound 1, Haemanthamine]: at hAChE [1] (cholinesterase assay), the “hAChE inhibition activity, in words” value is “completely inactive”. In addition, the IC50 on hAChE [1] and against hBuChE [2] was greater than 500 µM throughout. Further, on hBuChE [2] (cholinesterase assay), the “hBuChE inhibition activity, in words” value is “completely inactive”. Also, the “toxicity against the tested human cell lines, in words” value in series [3] was “potent cytotoxic and apoptotic effects”.
As to `COC1C=CC23c4cc5c(cc4CN(CC2OC(=O)c2ccccc2)C3C1)OCO5` (centres unmarked) [Compound 1g, 11-O-Benzoylhaemanthamine], the IC50 on hAChE [1] was determined as 294 ± 25 µM; at hBuChE [2] (setting [14]) it was 5.8 ± 0.3 µM. In addition, on hAChE [1] (selectivity index, ratio hBuChE IC50/hAChE IC50), the “SI for hAChE” value is 0.02. Further, the inhibition at 10 µM on GSK-3β is 11 ± 2%. Also, the “PAMPA-BBB prediction of penetration in the CNS” value (from here on “PAMPA-BBB prediction”) is reported as “CNS+ (CNS(+): high BBB permeation predicted with Pe (10^−6 cm.s^−1) > 4.0)” in “in vitro” and “CNS +” in “in vitro” (listed as 18g). Moreover, the activity at 10 µM was determined as 83 ± 11% in series [4]; 98 ± 2% with A549 (lung carcinoma); 110 ± 17% in [6]; 100 ± 10% in [7]; 120 ± 10% in [8]; 98 ± 2% in [9]. Moreover, the activity at 10 µM was 108 ± 10% in series [10], 104 ± 9% in the series on SAOS-2 (osteosarcoma) and 101 ± 5% in series [11]. The viability at 10 µM in series [5] was determined as 110 ± 19%.
Take `COC1C=CC23c4cc5c(cc4CN(CC2OC(=O)c2ccccc2C)C3C1)OCO5` (centres unmarked) [Compound 1j, 11-O-(2-Methylbenzoyl)haemanthamine]: the “SI for hAChE” value on hAChE [1] is 0.4. The IC50 against hAChE [1] was 18.2 ± 1.3 µM; at hBuChE [2] (setting [14]) it was 6.6 ± 1.2 µM. The inhibition at 10 µM on GSK-3β is 15 ± 6%. The “PAMPA-BBB Permeability (Pe)” value in the series “in vitro” is listed as 5.8 ± 0.9 10^−6 cm s^−1. Also, the entries for the “PAMPA-BBB prediction” value in “in vitro” and in the series “in vitro” (listed as 18j) were “CNS+ (CNS(+): high BBB permeation predicted with Pe (10^−6 cm.s^−1) > 4.0)” and “CNS +”, respectively. In “in vitro”, this compound had a Papp greater than 4 ×10⁻⁶ cm/s. The activity at 10 µM in [4] was determined as 95 ± 11%; in the series with A549 (lung carcinoma), 96 ± 8%; in series [6], 98 ± 6%; in series [7] it was 95 ± 6%; in series [8], 129 ± 11%; in series [9], 104 ± 4%. The figures for the activity at 10 µM (in [10]; in the series with SAOS-2 (osteosarcoma); in series [11]) were 112 ± 3%, 97 ± 17% and 112 ± 9%, respectively. The viability at 10 µM in series [5] was 91 ± 3%. At hAChE [12], the “mechanism of inhibition of hAChE” value was “mixed mechanism of inhibition”. For the same compound, on hBuChE [13], the “mechanism of inhibition of hBuChE” value is on record as “mixed mechanism of inhibition”. This compound displayed a Ki on hBuChE [13] (from Lineweaver-Burk kinetic analysis) of 12.5 ± 0.45 µM.
Take `COC1C=CC23c4cc5c(cc4CN(CC2OC(=O)c2ccc([N+](=O)[O-])cc2)C3C1)OCO5` (centres unmarked) [Compound 1m, 11-O-(4-Nitrobenzoyl)haemanthamine]: the IC50 against hAChE [1] was 14.7 ± 1.8 µM; on hBuChE [2] (setting [14]), greater than 500 µM; at GSK-3β (mean ± SEM of three independent measurements), 34.8 ± 0.01 µM. Moreover, at GSK-3β, the inhibition at 10 µM came to 27 ± 9%. Moreover, the “PAMPA-BBB Permeability (Pe)” value in “in vitro” was 7.1 ± 0.3 10^−6 cm s^−1. Moreover, the “PAMPA-BBB prediction” value in “in vitro” is given as “CNS+ (CNS(+): high BBB permeation predicted with Pe (10^−6 cm.s^−1) > 4.0)”; in “in vitro” (listed as 18m), “CNS +”. The compound further registered a Papp in the series “in vitro” greater than 4 ×10⁻⁶ cm/s. For the same compound, the activity at 10 µM in series [4] turned out to be 69 ± 7%; in the series with A549 (lung carcinoma), 74 ± 6%; in series [6] it was 73 ± 2%; in series [7], 71 ± 7%; in series [8], 86 ± 4%; in [9], 71 ± 1%. The values for the activity at 10 µM (in [10]; with SAOS-2 (osteosarcoma); in [11]) were 62 ± 10%, 69 ± 4% and 61 ± 8%, respectively. In addition, the viability at 10 µM in series [5] was 76 ± 12%. In addition, the “mechanism of inhibition of hAChE” value at hAChE [12] is “mixed mechanism of inhibition”. Also, at hBuChE [13], the “mechanism of inhibition of hBuChE” value was “mixed mechanism of inhibition”.

The record behind these values is publication PMC6480460, “Derivatives of the β-Crinane Amaryllidaceae Alkaloid Haemanthamine as Multi-Target Directed Ligands for Alzheimer’s Disease” (Molecules, 2019).
